Where two headings read alike, the source gives them in different places.
Experiments:
[1] = log P determination by HPLC (EEC Directive 79/831 Annex V.A8); assay type: physicochemical
Protocol: The measurements were carried out using an Agilent 1100 LC system with a 50*4.6 Zorbax Eclipse C18 1.8 μm column (oven temperature 55° C., flow rate 2.0 ml/min).
The following mobile phases were used:
Mobile phase A: acetonitrile+1000 μl of formic acid/l
Mobile phase B: Millipore water+900 μl of formic acid/l

[2] = system: caterpillars of the armyworm (Spodoptera frugiperda); test: Spodoptera frugiperda test (SPODFR spray treatment); assay type: in vivo; details: Spodoptera frugiperda, foliar, read-out: effect in % (caterpillars killed)
Excerpt: (§1) Solvent: 78.0 parts by weight of acetone

[3] = system: green peach aphid (Myzus persicae); test: Myzus test (MYZUPE spray treatment); assay type: in vivo; details: for pest or weed control at 100 g/ha: Myzus persicae, in Brassica rapa, foliar, read-out: effect in % (aphids killed); for Kill in %/7 days: 100 g/ha
Excerpt: Solvent: 78 parts by weight of acetone
as §1

[4] = system: larvae of the mustard beetle (Phaedon cochleariae); test: Phaedon test (PHAECO spray treatment); details: Phaedon cochleariae, in Brassica rapa, foliar, read-out: effect in % (beetle larvae killed)
[5] = reversed-phase HPLC, Zorbax Eclipse C18 column, determined by HPLC according to EEC Directive 79/831 Annex V.A8, read-out: log P
[6] = application rate 100 g/ha, maize leaf discs
[7] = reversed-phase HPLC, Zorbax Eclipse C18 column, by HPLC according to EEC Directive 79/831 Annex V.A8, read-out: log P

SMILES	chromatographic logP ([1]; log P)	pest or weed control at 100 g/ha ([2]; in Zea mays)	pest or weed control at 100 g/ha [4]	pest or weed control at 100 g/ha [2, 6]	further results
Cc1cc(C)c(NC(=O)c2cc(Cn3nnc(C(F)(F)F)n3)nn2-c2ncccc2Cl)c(C(N)=O)c1 [Example 80]	2.62	≥ 80%			pest or weed control at 100 g/ha [3]: ≥ 80%
Cc1cc(C)c(NC(=O)c2cc(Cn3nnnc3C(F)(F)F)nn2-c2ncccc2Cl)c(C(=O)NC(C)C)c1 [Example 179]	2.94	≥ 80%			pest or weed control at 100 g/ha [3]: ≥ 80%
CNC(=O)c1cc(C#N)cc(C)c1NC(=O)c1cc(C(C)n2nnnc2C(F)(F)F)nn1-c1ncccc1Cl (centres unmarked) [Example 512]	2.53		≥ 80%		pest or weed control at 100 g/ha [3]: ≥ 80%
Cc1cc(Cl)cc(C(N)=O)c1NC(=O)c1cc(Cn2nnc(C(F)(F)F)n2)nn1-c1ncccc1Cl [Example 16]			≥ 80%		log P [1]: 2.77; pest or weed control at 100 g/ha [3]: ≥ 80%
CNC(=O)c1cc(Cl)cc(C)c1NC(=O)c1cc(Cn2nnnc2-c2ccc(C(F)(F)F)cc2)nn1-c1ncccc1Cl [drawing 606]					Kill in %/7 days [3]: 80%
CSC[C@H](C)NC(=O)c1cc(C#N)cc(C)c1NC(=O)c1cc(Cn2nnc(C(F)(F)F)n2)nn1-c1ncccc1Cl [Example 22]					log P [1]: 3.27; pest or weed control at 100 g/ha [3]: ≥ 80%
CNC(=O)c1cc(Cl)cc(C)c1NC(=O)c1cc(Cn2nnnc2C(F)(F)F)nn1-c1ncccc1Cl [drawing 605]					Kill in %/7 days [3]: 100%
Cc1cc(I)cc(C(=O)NC(C)C2CC2)c1NC(=O)c1cc(Cn2nnc(C(F)F)n2)nn1-c1ncccc1Cl (centres unmarked) [Example 274]	3.52	≥ 80%			pest or weed control at 100 g/ha [3]: ≥ 80%
CCNC(=O)c1cc(C)cc(C)c1NC(=O)c1cc(Cn2nnc(C(F)(F)F)n2)nn1-c1ncccc1Cl [Example 81]	3.06	≥ 80%			pest or weed control at 100 g/ha [3]: ≥ 80%
CNC(=O)c1cc(Cl)cc(Cl)c1NC(=O)c1cc(Cn2nnc(C(F)(C(F)(F)F)C(F)(F)F)n2)nn1-c1ncccc1Cl [Example 386]	3.65	≥ 80%	≥ 80%		
O=C(NC1CC1)c1cc(Cl)cc(Cl)c1NC(=O)c1cc(Cn2nnc(C(F)(F)F)n2)nn1-c1ncccc1Cl [Example 57]	3.18	≥ 80%	≥ 80%		
CCNC(=O)c1cc(I)cc(C)c1NC(=O)c1cc(Cn2nnc(C(F)(C(F)(F)F)C(F)(F)F)n2)nn1-c1ncccc1Cl [Example 380]	4.2	≥ 80%	≥ 80%		
CNC(=O)c1cc(C#N)cc(C)c1NC(=O)c1cc(Cn2nnc(C(F)(F)F)n2)nn1-c1ccccc1 [Example 431]			≥ 80%	≥ 80%	chromatographic logP [1, 5]: 2.81
CNC(=O)c1cc(C#N)cc(C)c1NC(=O)c1cc(Cn2nnc(C(F)(F)F)n2)nn1-c1cccc(Cl)c1Cl [Example 327]			≥ 80%	≥ 80%	chromatographic logP [1, 7]: 3.4
CCNC(=O)c1cc(I)cc(C)c1NC(=O)c1cc(Cn2nnc(C(F)(F)F)n2)nn1-c1ncccc1Cl [Example 66]	3.47	≥ 80%	≥ 80%		
Cc1cc(Cl)cc(C(=O)NC(C)C2CC2)c1NC(=O)c1cc(Cn2nnnc2C(F)(F)C(F)(F)F)nn1-c1ncccc1Cl (centres unmarked) [Example 199]	3.88	≥ 80%	≥ 80%		
CNC(=O)c1cc(Cl)cc(C)c1NC(=O)c1cc(Cn2nnc(C(F)(C(F)(F)F)C(F)(F)F)n2)nn1-c1ncccc1Cl [Example 357]	3.72	≥ 80%	≥ 80%		
Cc1cc(Br)cc(C(=O)NC(C)C2CC2)c1NC(=O)c1cc(Cn2nnc(C(F)F)n2)nn1-c1ncccc1Cl (centres unmarked) [Example 297]	3.36	≥ 80%	≥ 80%		
Cc1cc(C#N)cc(C(=O)NC(C2CC2)C2CC2)c1NC(=O)c1cc(Cn2nnc(C(F)(F)F)n2)nn1-c1ncccc1Cl [Example 87]	3.65	≥ 80%	≥ 80%		
Cc1cc(Cl)cc(C(=O)NC2CC2)c1NC(=O)c1cc(Cn2nnc(C(F)(F)F)n2)nn1-c1ncccc1Cl [Example 25]	3.23	≥ 80%	≥ 80%		

SMILES	chromatographic logP ([1]; log P)	pest or weed control at 100 g/ha ([2]; in Zea mays)	pest or weed control at 100 g/ha [4]	pest or weed control at 100 g/ha [2, 6]	further results
Cc1cc(Cl)cc(C(=O)NCC2CC2)c1NC(=O)c1cc(Cn2nnc(C(F)(C(F)(F)F)C(F)(F)F)n2)nn1-c1ncccc1Cl [Example 359]			≥ 80%	≥ 80%	chromatographic logP [1, 7]: 4.26
CCNC(=O)c1cc(Br)cc(C)c1NC(=O)c1cc(Cn2nnc(C(F)(F)F)n2)nn1-c1ncccc1C(F)(F)F [Example 244]			≥ 80%	≥ 80%	chromatographic logP [1, 7]: 3.52
Cc1cc(C#N)cc(C(=O)NCC(F)F)c1NC(=O)c1cc(Cn2nnc(C(F)(C(F)(F)F)C(F)(F)F)n2)nn1-c1ncccc1Cl [Example 375]			≥ 80%	≥ 80%	chromatographic logP [1, 7]: 3.57
Cc1cc(Cl)cc(C(=O)NC2CC2)c1NC(=O)c1cc(Cn2nnc(C(F)(C(F)(F)F)C(F)(F)F)n2)nn1-c1ncccc1Cl [Example 365]	3.94	≥ 80%	≥ 80%		
Cc1cc(Cl)cc(C(=O)NC(C)C)c1NC(=O)c1cc(Cn2nnc(C(F)(F)C(F)(F)F)n2)nn1-c1ncccc1Cl [drawing 603]					Kill in %/7 days [3]: 70%
Cc1cc(Cl)cc(C(=O)NCC#N)c1NC(=O)c1cc(Cn2nnc(C(F)(F)F)n2)nn1-c1ncccc1Br [Example 325]			≥ 80%	≥ 80%	chromatographic logP [1, 7]: 2.72
Cc1cc(Br)cc(C(=O)NC2CCC2)c1NC(=O)c1cc(Cn2nnc(C(F)(F)F)n2)nn1-c1ncccc1Cl [Example 50]	3.71	≥ 80%	≥ 80%		
CNC(=O)c1cc(Cl)cc(C)c1NC(=O)c1cc(Cn2nnnc2C(F)(F)F)nn1-c1ccccc1F [Example 474]			≥ 80%	≥ 80%	chromatographic logP [1, 5]: 2.94
Cc1cc(C#N)cc(C(=O)NC(C)(C)C)c1NC(=O)c1cc(Cn2nnc(C(F)(F)F)n2)nn1-c1ccccc1Cl [Example 343]			≥ 80%	≥ 80%	chromatographic logP [1, 7]: 3.92
Cc1cc(C)c(NC(=O)c2cc(Cn3nnc(C(F)(F)F)n3)nn2-c2ncccc2Cl)c(C(=O)NC(C)C2CC2)c1 (centres unmarked) [Example 82]	3.59	≥ 80%			pest or weed control at 100 g/ha [3]: ≥ 80%
Cc1cc(I)cc(C(=O)NC2CC2)c1NC(=O)c1cc(Cn2nnc(C(F)(F)C(F)(F)C(F)(F)F)n2)nn1-c1ncccc1Cl [Example 111]		≥ 80%	≥ 80%		chromatographic logP ([1]; by HPLC according to EEC Directive 79/831 Annex V.A8, read-out: log P): 4.23
CNC(=O)c1cc(Br)cc(C)c1NC(=O)c1cc(Cn2nnc(C(F)(F)F)n2)nn1-c1ncccc1C(F)(F)F [Example 228]			≥ 80%	≥ 80%	chromatographic logP [1, 7]: 3.28
Cc1cc(Cl)cc(C(=O)NC(C)(C)C)c1NC(=O)c1cc(Cn2nnc(C(F)(F)C(F)(F)F)n2)nn1-c1ccccc1Cl [Example 535]			≥ 80%	≥ 80%	chromatographic logP [1, 5]: 4.73
CNC(=O)c1cc(Br)cc(C)c1NC(=O)c1cc(Cn2nnc(C(F)(F)C(F)(F)F)n2)nn1-c1ncccc1Cl [Example 143]	3.5	≥ 80%	≥ 80%		
Cc1cc(I)cc(C(=O)NC(C)C2CC2)c1NC(=O)c1cc(Cn2nnc(C(F)(C(F)(F)F)C(F)(F)F)n2)nn1-c1ncccc1Cl (centres unmarked) [Example 378]			≥ 80%	≥ 80%	chromatographic logP [1, 7]: 4.74
CNC(=O)c1cc(Cl)cc(C)c1NC(=O)c1cc(Cn2nnc(C(C)(C)C)n2)nn1-c1ncccc1Cl [Example 103]	3.02	≥ 80%	≥ 80%		
Cc1cc(Br)cc(C(=O)NC(C)C)c1NC(=O)c1cc(Cn2nnc(C(F)(F)F)n2)nn1-c1ncccc1Br [Example 355]			≥ 80%	≥ 80%	chromatographic logP [1, 7]: 3.66
CCNC(=O)c1cc(C#N)cc(C)c1NC(=O)c1cc(Cn2nnc(C(F)(F)F)n2)nn1-c1ncccc1C(F)(F)F [Example 234]			≥ 80%	≥ 80%	chromatographic logP [1, 7]: 3.07
Cc1cc(C#N)cc(C(=O)NCC(F)(F)F)c1NC(=O)c1cc(Cn2nnnc2C(F)(F)F)nn1-c1ccccc1Cl [Example 538]			≥ 80%	≥ 80%	chromatographic logP [1, 5]: 3.2
CSC[C@H](C)NC(=O)c1cc(Cl)cc(Cl)c1NC(=O)c1cc(Cn2nnc(C(F)(C(F)(F)F)C(F)(F)F)n2)nn1-c1ncccc1Cl [Example 394]			≥ 80%	≥ 80%	chromatographic logP [1, 7]: 4.3

Source: patent US8324390B2, “Tetrazole-substituted anthranilamides as pesticides” (Bayer CropScience AG, priority 2008, dated 2012)
